From US6750217B2, “Benzenesulfonamide derivatives and their use as MEK inhibitors” (Warner-Lambert Company, priority 1999, dated 2004)

How the values were obtained:
[1] = target: GST-MEK (p45MEK) / GST-MAPK (p44MAP kinase) (Homo sapiens, UniProt Q02750); assay: APK IC50; cascade assay for inhibitors of the MAP kinase pathway; format: biochemical
Method: According to one aspect of the invention, the compounds are MEK inhibitors. MEK inhibition assays include the cascade assay for inhibitors of MAP kinase pathway described at column 6, line 36 to column 7, line 4 of U.S. Pat. No. 5,525,625 and the in vitro MEK assay at column 7, lines 4-27 of the same patent, the entire disclosure of which is incorporated by reference (see also Examples 5-10 below).
Incorporation of ^32P into myelin basic protein (MBP) is assayed in the presence of a glutathione S-transferase fusion protein containing p44MAP kinase (GST-MAPK) and a glutathione S-transferase fusion protein containing p45MEK (GST-MEK). The assay solution contains 20 mM HEPES, pH 7.4, 10 mM MgCl2, 1 mM MnCl2, 1 mM EGTA, 50,μM [γ-^32P]ATP, 10 μg GST-MEK, 0.5 μg GST-MAPK and 40 μg MBP in a final volume of 100 μL. Reactions are stopped after 20 minutes by addition of trichloroacetic acid and filtered through a GF/C filter mat. ^32P retained on the filter mat is determined using a 120S Betaplate. Compounds are assessed at 10 μM for ability to inhibit incorporation of ^32P.
To ascertain whether compounds are inhibiting GST-MEK or GST MAPK, two additional protocols are employed. In the first protocol, compounds are added to tubes containing GST-MEK, followed by addition of GST-MAPK, MBP and [β-^32P]ATP. In the second protocol, compounds are added to tubes containing both GST-MEK and GST-MAPK, followed by MBP and [β-^32P]ATP.
Compounds that show activity in both protocols are scored as MAPK inhibitors, while compounds showing activity in only the first protocol are scored as MEK inhibitors.

C26 Cells = assay: C26 Cells; format: cell-based

Chain of GST-MEK (p45MEK) / GST-MAPK (p44MAP kinase) (Q02750 whole entry): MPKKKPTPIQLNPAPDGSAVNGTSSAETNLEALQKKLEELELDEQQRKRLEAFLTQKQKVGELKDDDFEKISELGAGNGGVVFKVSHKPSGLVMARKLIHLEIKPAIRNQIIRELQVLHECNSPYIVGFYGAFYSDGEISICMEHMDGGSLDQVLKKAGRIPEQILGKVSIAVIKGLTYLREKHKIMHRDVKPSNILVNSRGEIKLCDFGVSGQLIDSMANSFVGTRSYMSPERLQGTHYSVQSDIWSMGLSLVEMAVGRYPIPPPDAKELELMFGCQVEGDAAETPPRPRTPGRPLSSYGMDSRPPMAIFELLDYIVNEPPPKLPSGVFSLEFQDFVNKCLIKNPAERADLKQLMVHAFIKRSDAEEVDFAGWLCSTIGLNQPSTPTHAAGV

Row | IC50 [1] [nM] | melting point | IC50 (C26 Cells) [nM] | SMILES
1 | 222 | – | – | COC(=O)c1cc(S(=O)(=O)N(C)C)c(F)c(F)c1Nc1ccc(I)cc1Cl [PD 193846, 2-(2-Chloro-4-iodo-phenlylamino)-5-dimethylsulfamoyl-3,4-difluoro-benzoic acid methyl ester]
2 | 781 | 295 to 296 °C (dec.) | – | NS(=O)(=O)c1cc(C(=O)O)c(Nc2ccc(I)cc2Cl)c(F)c1F [PD 215730, 2-(2-Chloro-4-iodo-phenylamino)-3,4-difluoro-5-sulfamoyl-benzoic acid]
3 | > 3000 | – | – | COc1ccc(CN(Cc2ccc(OC)cc2)S(=O)(=O)c2cc(C(=O)NOCC3CC3)c(Nc3ccc(I)cc3Cl)c(F)c2F)cc1 [PD 218774, 5-[Bis-(4-methoxy-benzyl)-sulfamoyl]-2-(2-chloro-4-iodo-phenylamino)-N-cyclopropylmethoxy-3,4-difluoro-benzamide]
4 | 186 | 219 to 227 °C (dec.) | 1600 | NS(=O)(=O)c1cc(C(=O)NOCC2CC2)c(Nc2ccc(I)cc2Cl)c(F)c1F [PD 219622, 2-(2-Chloro-4-iodo-phenylamino)-N-cyclopropylmethoxy-3,4-difluoro-5-sulfamoyl-benzamide]
5 | > 3000 | – | – | CN(Cc1cccnc1)S(=O)(=O)c1cc(C(=O)O)c(Nc2ccc(I)cc2Cl)c(F)c1F [PD 219795, 2-(2-Chloro-4-iodo-phenylamino)-3,4-difluoro-5-(methyl-pyridin-3-ylmethyl-sulfamoyl)-benzoic acid]
6 | 122 | 230 to 236 °C (dec.) | 9100 | NS(=O)(=O)c1cc(C(=O)NO)c(Nc2ccc(I)cc2Cl)c(F)c1F [PD 224213, 2-(2-Chloro-4-iodo-phenylamino)-3,4-difluoro-N-hydroxy-5-sulfamoyl-benzamide]
7 | 283 | – | > 10000 | CN(C)S(=O)(=O)c1cc(C(=O)O)c(Nc2ccc(I)cc2Cl)c(F)c1F [PD 224339, 2-(2-Chloro-4-iodo-phenylamino)-5-dimethylsulfamoyl-3,4-difluoro-benzoic acid]
8 | 441 | – | > 10000 | Cc1cc(I)ccc1Nc1c(C(=O)O)cc(S(=O)(=O)N(C)C)c(F)c1F [PD 224340, 5-Dimethylsulfamoyl-3,4-difluoro-2-(4-iodo-2-methyl-phenylamino)-benzoic acid]
9 | 936 | 222 to 225 °C (dec.) | – | CN(C)S(=O)(=O)c1cc(C(=O)NOCC2CC2)c(Nc2ccc(I)cc2Cl)c(F)c1F [PD 250253, 2-(2-Chloro-4-iodo-phenylamino)-N-cyclopropylmethoxy-5-dimethylsulfamoyl-3,4-difluoro-benzamide]
10 | 3700 | 171 to 172 °C | – | Cc1cc(I)ccc1Nc1c(C(=O)NOCC2CC2)cc(S(=O)(=O)N(C)C)c(F)c1F [PD 252745, N-Cyclopropylmethoxy-5-dimethylsulfamoyl-3,4-difluoro-2-(4-iodo-2-methyl-phenylamino)-benzamide]
